In PubChem BioAssay AID651555 (The Scripps Research Institute Molecular Screening Center, 2012):
Activity calls are given as the source filed them.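 The calls were made as follows: active = compounds whose half-maximal activation potency EC50 is 10 µM or stronger; inactive = the rest.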

Target: Melanocortin receptor 4 (Homo sapiens) (UniProt P32245)
Assay: MC4R beta-arrestin agonist potency, late-stage follow-up, cell-based, luminescence, agonists (AID 651555)
Conditions: U2OS MC4R beta-arrestin recruitment, beta-gal luminescence

Chain of Melanocortin receptor 4 (Homo sapiens) (P32245 whole entry, looked up): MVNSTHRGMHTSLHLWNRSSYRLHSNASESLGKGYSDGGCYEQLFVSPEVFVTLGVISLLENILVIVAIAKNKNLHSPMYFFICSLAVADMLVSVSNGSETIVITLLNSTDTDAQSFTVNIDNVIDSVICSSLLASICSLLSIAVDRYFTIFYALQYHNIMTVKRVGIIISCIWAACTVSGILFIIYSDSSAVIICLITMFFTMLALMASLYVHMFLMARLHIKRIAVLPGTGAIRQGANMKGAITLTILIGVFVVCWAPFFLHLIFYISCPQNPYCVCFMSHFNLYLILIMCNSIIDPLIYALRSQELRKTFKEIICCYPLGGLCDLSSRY

Row | SMILES | EC50
1 | CNC(=O)c1cc(Oc2ccc(NCC(=O)Nc3ccc(Cl)c(C(F)(F)F)c3)cc2)ccn1 | > 50 µM (inactive)
2 | CC(=O)N(C)c1cc(-c2ccc(N(C)C)cc2)cn2c(-c3ccc(F)c(Cl)c3)cnc12 | > 50 µM (inactive)
3 | CC1CCCCN1S(=O)(=O)c1ccc(NC(=O)c2nc(S(C)(=O)=O)ncc2Cl)cc1 (stereo not drawn) | > 50 µM (inactive)
4 | CCOC(=O)C1(c2ccccc2)CCN(CC(O)COc2ccc3ccccc3c2)CC1 (stereo not drawn) | > 50 µM (inactive)
5 | CCC1CCCCN1S(=O)(=O)c1ccc(NC(=O)c2ccnc(SC)n2)cc1 (stereo not drawn) | > 50 µM (inactive)
6 | OC(COc1ccc2ccccc2c1)CN1CCC(Nc2nc3ccccc3o2)CC1 (stereo not drawn) | > 50 µM (inactive)
7 | O=C1c2cccc3cccc(c23)C(=O)N1CC1CCN(CC(O)COc2ccccc2)CC1 (stereo not drawn) | > 50 µM (inactive)
8 | CCC1CCCCN1S(=O)(=O)c1ccc(NC(=O)c2cccc(S(C)(=O)=O)c2)cc1 (stereo not drawn) | > 50 µM (inactive)
9 | CC(=O)Nc1cc(-c2ccc(N(C)C)cc2)cn2c(-c3ccc(F)c(Cl)c3)cnc12 | > 50 µM (inactive)
10 | COc1ccccc1C1(CCNC(C)c2cccs2)CCOC(C(C)C)C1 (stereo not drawn) | > 50 µM (inactive)
11 | CC(=O)Nc1cc(-c2ccc(N(C)C)cc2)cn2c(-c3ccc(F)c(F)c3)cnc12 | > 50 µM (inactive)
12 | CC(=O)c1ccc(Nc2nc3ccc(C(=O)N(CCC(C)C)CCC(C)C)cc3n2CCCN2CCCCC2)cc1 | > 50 µM (inactive)
13 | O=C1c2cccc3cccc(c23)C(=O)N1CC1CCN(CC(O)COc2ccc3ccccc3c2)CC1 (stereo not drawn) | inactive
14 | Cc1ccccc1OCC(O)CN1CCC(CN2C(=O)c3cccc4cccc(c34)C2=O)CC1 (stereo not drawn) | > 50 µM (inactive)
15 | CNC(=O)c1cc(Oc2ccc(NC(=O)CNc3ccc(Cl)c(C(F)(F)F)c3)cc2)ccn1 | > 50 µM (inactive)
16 | CC(=O)Nc1cc(-c2ccc(N(C)C)cc2)cn2c(-c3ccc(F)cc3)cnc12 | > 50 µM (inactive)
17 | CNC(=O)c1cc(Oc2ccc(NC(=O)Nc3ccc(Cl)c(C(F)(F)F)c3)cc2)ccn1 | > 50 µM (inactive)
18 | CCC1CCCCN1S(=O)(=O)c1ccc(NC(=O)c2nc(S(C)(=O)=O)ncc2Cl)cc1 (stereo not drawn) | > 50 µM (inactive)
19 | C#CC(=O)N(c1ccc(OC)c(OC)c1)C(C(=O)NC1CCCC1)c1cccs1 (stereo not drawn) | > 50 µM (inactive)
20 | Cc1ccccc1CN1Cc2cnnn2-c2ccccc2C1C#N (stereo not drawn) | > 50 µM (inactive)
21 | CCC1CCCCN1S(=O)(=O)c1ccc(NC(=O)c2ccccc2)cc1 (stereo not drawn) | inactive
22 | O=c1[nH]c2ccccc2n1C1CCN(CC(O)COc2ccc3ccccc3c2)CC1 (stereo not drawn) | > 50 µM (inactive)
23 | COc1ccc(N(C(C)=O)C(C(=O)NC2CCCC2)c2cccs2)cc1OC (stereo not drawn) | > 50 µM (inactive)
